For data set [1] the following is noted: acidic stomach pH; cited from earlier work.
For data set [2] the following is noted: after oral administration; cited from earlier work.
Data set [3] in a line: In vitro transmucosal permeation of liraglutide through porcine sublingual mucosa (Franz diffusion cell). It counts as in vitro ADME. Conditions: from nanofibre carrier. The protocol:
The liraglutide containing nanofibre carrier samples or the reference solution samples were applied onto fresh porcine sublingual mucosa of thickness ca 0.4 mm fixed in a Franz diffusion cell. An exposed mucosal area for permeation was 1.0 cm^2, and the stirred acceptor phase was phosphate buffer pH 7.4 tempered at 37°±0.5° C. Both the tested solutions (Victoza pre-filled pen for subcutaneous injection, 6 mg/mL and the liraglutide solution in buffer pH 6.80, 0.4 mg/mL) were applied onto the sublingual membrane in 400 μL volume. Donor nanofibre samples contained 0.5 mg of liraglutide in the form of a multilayered nanofibre disc and were suffused in donor space with 400 μL of buffer pH 6.80 or 8.15, respectively.
Determination of liraglutide was performed on an Agilent 1200 instrument. The parameters were as follows: Column Poroshell 120 EC-C18 (4.6×150 mm, particle size: 5.0 μm) was thermostated at 35° C. Samples were kept at 10° C., injection 5.00 μL. Mobile Phase A: Na2HPO4 (pH 7.75):ACN (85:15) was mixed with Mobile Phase B: ACN in gradient and pumped at speed 1.200 mL/min. Detector wavelength: 215 nm. Resulting liraglutide retention time was ca 3.4 min.

Where a name gives a salt, the structure may show the parent alone.

The values that follow come from patent publication US12194158B2, “Oromucosal nanofiber carriers for therapeutic treatment” (Instar Technologies A.S., priority 2016, dated 2025).

For `CCCCCCOC(=O)NC(=N)c1ccc(NCc2nc3cc(C(=O)N(CCC(=O)OCC)c4ccccn4)ccc3n2C)cc1` [DG, Dabigatran ethexylate mesylate], the solubility entry in data set [1] is reported as “very good”.
Turning to `CNS(=O)(=O)Cc1ccc2[nH]cc(CCN(C)C)c2c1` [sumatriptan], the oral bioavailability in data set [2] is listed as 15%.
For `CCCCCCCCCCCCCCCC(=O)N[C@@H](CCC(=O)NCCCC[C@H](NC(=O)[C@H](C)NC(=O)[C@H](C)NC(=O)[C@H](CCC(N)=O)NC(=O)CNC(=O)[C@H](CCC(=O)O)NC(=O)[C@H](CC(C)C)NC(=O)[C@H](Cc1ccc(O)cc1)NC(=O)[C@H](CO)NC(=O)[C@H](CO)NC(=O)[C@@H](NC(=O)[C@H](CC(=O)O)NC(=O)[C@H](CO)NC(=O)[C@@H](NC(=O)[C@H](Cc1ccccc1)NC(=O)[C@@H](NC(=O)CNC(=O)[C@H](CCC(=O)O)NC(=O)[C@H](C)NC(=O)[C@@H](N)Cc1cnc[nH]1)[C@@H](C)O)[C@@H](C)O)C(C)C)C(=O)N[C@@H](CCC(=O)O)C(=O)N[C@@H](Cc1ccccc1)C(=O)N[C@H](C(=O)N[C@@H](C)C(=O)N[C@@H](Cc1c[nH]c2ccccc12)C(=O)N[C@@H](CC(C)C)C(=O)N[C@H](C(=O)N[C@@H](CCCNC(=N)N)C(=O)NCC(=O)N[C@@H](CCCNC(=N)N)C(=O)NCC(=O)O)C(C)C)[C@@H](C)CC)C(=O)O` [Liraglutide], the “duration of further sublingual permeation in vitro” value in data set [3] is reported as “about 1 hour”. The “transmucosal permeation through the sublingual membrane” value in data set [3] (FIG. 5) is on record as “able to permeate transmucosally”.
